PubChem BioAssay AID220 (DTP/NCI, 2004)
Values joined by “and” are separate entries in the source; they are usually repeats but may differ in a detail not shown here. Identical values can stand only once. Results filed as inconclusive are left out.

Tested on: CD8F1 mice, subcutaneous mammary adenocarcinoma, T/C%
Assay: NCI In Vivo Anticancer Drug Screen. Data for tumor model Mammary Adenocarcinoma CD8F1 (subcutaneous) in CD8F1
Conditions: higher = larger tumour
Method in brief: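 Antitumor activity is assessed in transplantable-tumor mice by comparing the treated group with a vehicle-treated control group. Survival or tumor size serves as the measure, reported as T divided by C.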

[1] = endpoint: median tumor weight change, dose: 125.0 mg/kg/injection, schedule: Q01DX001 (ip), vehicle: saline with Tween-80
[2] = endpoint: median tumor weight change, dose: 250.0 mg/kg/injection, schedule: Q01DX001 (ip), vehicle: saline with Tween-80
[3] = endpoint: median tumor weight change, dose: 1000.0 mg/kg/injection, schedule: Q01DX001 (ip), vehicle: saline with Tween-80
[4] = endpoint: median tumor weight (est.), dose: 25.0 mg/kg/injection, schedule: Q07DX005 (ip), vehicle: saline
[5] = endpoint: median tumor weight (est.), dose: 50.0 mg/kg/injection, schedule: Q07DX005 (ip), vehicle: saline
[6] = endpoint: median tumor weight (est.), dose: 8.0 mg/kg/injection, schedule: Q07DX005 (ip), vehicle: saline with Tween-80
[7] = endpoint: median tumor weight (est.), dose: 64.0 mg/kg/injection, schedule: Q07DX005 (ip), vehicle: saline with Tween-80

## C/C=C/C=C1/OC(C)=C(C(C)=O)C1=O
[1]
  T/C: 94 % of control and 104 % of control
[2]
  T/C: 64 % of control

## CC(=O)Nc1cscc1NC(C)=O
[2]
  T/C: 73 % of control and 85 % of control
endpoint: median tumor weight change, dose: 500.0 mg/kg/injection, schedule: Q01DX001 (ip), vehicle: saline with Tween-80
  T/C: 71 % of control and 73 % of control
[3]
  T/C: 74 % of control and 91 % of control

## CC(=O)OCC1OC(n2ncc(=O)[nH]c2=O)C(OC(C)=O)C1OC(C)=O (configuration not stated)
endpoint: median tumor weight change, dose: 125.0 mg/kg/injection, schedule: Q01DX001 (ip), vehicle: saline
  T/C: 165 % of control
endpoint: median tumor weight change, dose: 250.0 mg/kg/injection, schedule: Q01DX001 (ip), vehicle: saline
  T/C: 111 % of control
endpoint: median tumor weight change, dose: 500.0 mg/kg/injection, schedule: Q01DX001 (ip), vehicle: saline
  T/C: 162 % of control
endpoint: median tumor weight change, dose: 1000.0 mg/kg/injection, schedule: Q01DX001 (ip), vehicle: saline
  T/C: 117 % of control

## CN(C)CCCNc1c2ccccc2nc2cccc([N+](=O)[O-])c12
endpoint: median tumor weight (est.), dose: 0.06 mg/kg/injection, schedule: Q07DX004 (ip), vehicle: saline
  T/C: 90 % of control
endpoint: median tumor weight (est.), dose: 15.0 micrograms/kg/injection, schedule: Q07DX005 (ip), vehicle: saline
  T/C: 86 % of control

## OCC1OC(n2cnc3c2NC=NC[C@H]3O)CC1O (some centres not stated)
endpoint: median tumor weight (est.), dose: 0.25 mg/kg/injection, schedule: Q07DX005 (ip), vehicle: water
  T/C: 104 % of control
endpoint: median tumor weight (est.), dose: 0.5 mg/kg/injection, schedule: Q07DX005 (ip), vehicle: water
  T/C: 108 % of control
endpoint: median tumor weight (est.), dose: 2.0 mg/kg/injection, schedule: Q07DX005 (ip), vehicle: water
  T/C: 63 % of control
endpoint: median tumor weight (est.), dose: 4.0 mg/kg/injection, schedule: Q07DX005 (ip), vehicle: water
  T/C: 51 % of control
endpoint: median tumor weight (est.), dose: 8.0 mg/kg/injection, schedule: Q07DX005 (ip), vehicle: water
  T/C: 60 % of control

## C1OC1CN1CCN(CC2CO2)CC1 (configuration not stated)
endpoint: median tumor weight (est.), dose: 3.12 mg/kg/injection, schedule: Q07DX005 (ip), vehicle: saline
  T/C: 72 % of control and 80 % of control
endpoint: median tumor weight (est.), dose: 12.5 mg/kg/injection, schedule: Q07DX005 (ip), vehicle: saline
  T/C: 24 % of control and 38 % of control
[4]
  T/C: 24 % of control and 28 % of control
[5]
  T/C: 1 % of control and 4 % of control

## CC1=C(/C=C/C(C)=C/C=C/C(C)=C/C(=O)O)C(C)(C)CCC1
[6]
  T/C: 47 % of control
endpoint: median tumor weight (est.), dose: 16.0 mg/kg/injection, schedule: Q07DX005 (ip), vehicle: saline with Tween-80
  T/C: 71 % of control
[7]
  T/C: 92 % of control and 106 % of control
endpoint: median tumor weight (est.), dose: 256.0 mg/kg/injection, schedule: Q07DX005 (ip), vehicle: saline with Tween-80
  T/C: 49 % of control

## CC1CCC2N(C1)CC1C3CC4C(CC(=O)C5CC(O)CCC54C)C3CCC1C2(C)O (configuration not stated)
endpoint: mean tumor weight, dose: 2.5 mg/kg/injection, schedule: Q07DX006 (ip), vehicle: saline with Tween-80
  T/C: 87 % of control
endpoint: mean tumor weight, dose: 5.0 mg/kg/injection, schedule: Q07DX006 (ip), vehicle: saline with Tween-80
  T/C: 81 % of control
endpoint: mean tumor weight, dose: 10.0 mg/kg/injection, schedule: Q07DX006 (ip), vehicle: saline with Tween-80
  T/C: 90 % of control
endpoint: mean tumor weight, dose: 20.0 mg/kg/injection, schedule: Q07DX006 (ip), vehicle: saline with Tween-80
  T/C: 89 % of control

## c1cc(-c2cc3ccc(C4=NCCN4)cc3[nH]2)ccc1C1=NCCN1
endpoint: median tumor weight (est.), dose: 6.25 mg/kg/injection, schedule: Q07DX005 (ip), vehicle: suspension in saline
  T/C: 103 % of control
endpoint: median tumor weight (est.), dose: 12.5 mg/kg/injection, schedule: Q07DX005 (ip), vehicle: suspension in saline
  T/C: 60 % of control
[4]
  T/C: 45 % of control
endpoint: median tumor weight (est.), dose: 25.0 mg/kg/injection, schedule: Q07DX005 (ip), vehicle: suspension in saline
  T/C: 164 % of control
endpoint: median tumor weight change, dose: 62.0 mg/kg/injection, schedule: Q01DX001 (ip), vehicle: suspension in saline
  T/C: 99 % of control

## Oc1cc2c3c(c1)c1cc4c(cc1c[n+]3CC2)OCO4
endpoint: median tumor weight (est.), dose: 6.25 mg/kg/injection, schedule: Q07DX005 (ip), vehicle: water
  T/C: 81 % of control
endpoint: median tumor weight (est.), dose: 12.5 mg/kg/injection, schedule: Q07DX005 (ip), vehicle: water
  T/C: 83 % of control
endpoint: median tumor weight (est.), dose: 25.0 mg/kg/injection, schedule: Q07DX005 (ip), vehicle: water
  T/C: 85 % of control
endpoint: median tumor weight (est.), dose: 50.0 mg/kg/injection, schedule: Q07DX005 (ip), vehicle: water
  T/C: 94 % of control
endpoint: median tumor weight (est.), dose: 100.0 mg/kg/injection, schedule: Q07DX005 (ip), vehicle: water
  T/C: 78 % of control

## CCC[CH2][Hg][Cl]
endpoint: median tumor weight (est.), dose: 2.5 mg/kg/injection, schedule: Q07DX005 (ip), vehicle: Klucel (hydroxypropylcellulose) (HPC)
  T/C: 197 % of control
endpoint: median tumor weight (est.), dose: 5.0 mg/kg/injection, schedule: Q07DX005 (ip), vehicle: Klucel (hydroxypropylcellulose) (HPC)
  T/C: 112 % of control
endpoint: median tumor weight (est.), dose: 20.0 mg/kg/injection, schedule: Q07DX005 (ip), vehicle: Klucel (hydroxypropylcellulose) (HPC)
  T/C: 110 % of control

## COC1C=CC23c4cc5c(cc4C(O)OC2CN(C)C3C1)OCO5 (configuration not stated)
endpoint: median tumor weight (est.), dose: 18.75 mg/kg/injection, schedule: Q07DX005 (ip), vehicle: saline
  T/C: 154 % of control
endpoint: median tumor weight (est.), dose: 37.5 mg/kg/injection, schedule: Q07DX005 (ip), vehicle: saline
  T/C: 205 % of control
endpoint: median tumor weight (est.), dose: 75.0 mg/kg/injection, schedule: Q07DX005 (ip), vehicle: saline
  T/C: 88 % of control
endpoint: median tumor weight (est.), dose: 150.0 mg/kg/injection, schedule: Q07DX005 (ip), vehicle: saline
  T/C: 120 % of control

## O=C(CCl)NC(Cc1ccc(N(CCCl)CCCl)cc1)C(=O)O (configuration not stated)
endpoint: median tumor weight (est.), dose: 2.0 mg/kg/injection, schedule: Q01DX001 (ip), vehicle: Klucel (hydroxypropylcellulose) (HPC)
  T/C: 93 % of control
endpoint: median tumor weight (est.), dose: 4.0 mg/kg/injection, schedule: Q01DX001 (ip), vehicle: Klucel (hydroxypropylcellulose) (HPC)
  T/C: 54 % of control
endpoint: median tumor weight (est.), dose: 8.0 mg/kg/injection, schedule: Q01DX001 (ip), vehicle: Klucel (hydroxypropylcellulose) (HPC)
  T/C: 75 % of control and 82 % of control
endpoint: median tumor weight (est.), dose: 16.0 mg/kg/injection, schedule: Q01DX001 (ip), vehicle: Klucel (hydroxypropylcellulose) (HPC)
  T/C: 48 % of control and 60 % of control
endpoint: median tumor weight (est.), dose: 32.0 mg/kg/injection, schedule: Q01DX001 (ip), vehicle: Klucel (hydroxypropylcellulose) (HPC)
  T/C: 60 % of control and 62 % of control
endpoint: median tumor weight (est.), dose: 64.0 mg/kg/injection, schedule: Q01DX001 (ip), vehicle: Klucel (hydroxypropylcellulose) (HPC)
  T/C: 19 % of control and 43 % of control

## O=C1C(=O)c2ccccc2C(O)=C1CC=C(Cl)Cl
endpoint: median tumor weight (est.), dose: 6.25 mg/kg/injection, schedule: Q07DX005 (ip), vehicle: Klucel (hydroxypropylcellulose) (HPC)
  T/C: 112 % of control
endpoint: median tumor weight (est.), dose: 12.5 mg/kg/injection, schedule: Q07DX005 (ip), vehicle: Klucel (hydroxypropylcellulose) (HPC)
  T/C: 52 % of control
endpoint: median tumor weight (est.), dose: 25.0 mg/kg/injection, schedule: Q07DX005 (ip), vehicle: Klucel (hydroxypropylcellulose) (HPC)
  T/C: 99 % of control
endpoint: median tumor weight (est.), dose: 50.0 mg/kg/injection, schedule: Q07DX005 (ip), vehicle: Klucel (hydroxypropylcellulose) (HPC)
  T/C: 93 % of control
endpoint: median tumor weight (est.), dose: 100.0 mg/kg/injection, schedule: Q07DX005 (ip), vehicle: Klucel (hydroxypropylcellulose) (HPC)
  T/C: 61 % of control

## CC[C@H](CC[C@@H](C)C1CC[C@H]2[C@@H]3CC=C4C[C@@H](OP(=O)(N5CC5)N5CC5)CC[C@]4(C)[C@H]3CC[C@]12C)C(C)C (some centres not stated)
endpoint: median tumor weight (est.), dose: 25.0 mg/kg/injection, schedule: Q07DX005 (ip), vehicle: saline with Tween-80
  T/C: 77 % of control
endpoint: median tumor weight (est.), dose: 50.0 mg/kg/injection, schedule: Q07DX005 (ip), vehicle: saline with Tween-80
  T/C: 56 % of control and 75 % of control
endpoint: median tumor weight (est.), dose: 200.0 mg/kg/injection, schedule: Q07DX005 (ip), vehicle: saline with Tween-80
  T/C: 72 % of control and 75 % of control
[1]
  T/C: 82 % of control
[3]
  T/C: 41 % of control and 44 % of control
endpoint: median tumor weight change, dose: 2000.0 mg/kg/injection, schedule: Q01DX001 (ip), vehicle: saline with Tween-80
  T/C: 9 % of control and 14 % of control

## O=P1(NCCCl)OCCCN1CCCl (configuration not stated)
[4]
  T/C: 26 % of control and 29 % of control
[5]
  T/C: 11 % of control and 12 % of control
endpoint: median tumor weight (est.), dose: 100.0 mg/kg/injection, schedule: Q07DX005 (ip), vehicle: saline
  T/C: 6 % of control

## c1cc[c]([Sn]([NH]c2ncnc3[nH]cnc23)([NH]c2ncnc3[nH]cnc23)[c]2ccccc2)cc1
endpoint: median tumor weight change, dose: 125.0 mg/kg/injection, schedule: Q01DX001 (ip), vehicle: suspension in saline
  T/C: 101 % of control
endpoint: median tumor weight change, dose: 250.0 mg/kg/injection, schedule: Q01DX001 (ip), vehicle: suspension in saline
  T/C: 61 % of control
endpoint: median tumor weight change, dose: 500.0 mg/kg/injection, schedule: Q01DX001 (ip), vehicle: suspension in saline
  T/C: 41 % of control
endpoint: median tumor weight change, dose: 1000.0 mg/kg/injection, schedule: Q01DX001 (ip), vehicle: suspension in saline
  T/C: 42 % of control

## CCOC(=O)C(CC(C)C)NC(=O)C(Cc1ccc(N(CCCl)CCCl)cc1)NC(C)=O (configuration not stated)
[6]
  T/C: 112 % of control
endpoint: median tumor weight (est.), dose: 32.0 mg/kg/injection, schedule: Q07DX005 (ip), vehicle: saline with Tween-80
  T/C: 49 % of control and 58 % of control
[7]
  T/C: 9 % of control
